# Source: a melting point compilation (Tetko et al.; mined from patent text by program, amines drawn as free bases though some values may be those of a salt)
row,melting point [°C],Structure (SMILES)
1,174 to 176,O=C(O)Cc1ccc2c(c1)sc1ccccc12
2,135 to 137,CN(C)CCCN(C)C(=O)NC(Cc1c[nH]c2ccccc12)C(=O)CCc1cc(C(F)(F)F)cc(C(F)(F)F)c1 (stereo not given)
3,130,C=C=CS(=O)(=O)c1ncc(Cl)cn1
4,252 to 254,CC1(C)SC(=N)NC1=O
5,155 to 156,O=C(O)COc1ccc(C(=O)c2cccc(Cl)c2)c(Cl)c1Cl
6,206 to 208,O=C(NC(c1ccccc1)c1cc2ccncc2[nH]1)c1ccccc1 (stereo not given)
7,84,COC(=O)c1ccc(OC)c2c1OCCO2
8,222 to 224,CC(C)(C)n1cc(-c2ccc(S(=O)(=O)c3ccccc3)cc2)c2c(N)ncnc21
9,151 to 160,CC1CC2C3CCC4=CC(=O)C=CC4(C)C3=CCC2(C)C1C(=O)COS(=O)(=O)c1ccc([N+](=O)[O-])cc1 (stereo not given)
10,162 to 165,Cc1ccc(-c2cccc(/C=C/C(=O)Nc3ccc(C(O)c4ccccn4)cc3)c2)cc1 (stereo not given)
11,174 to 177,Cn1c(CO)nc2ccc(-c3ccccc3)nc21
12,192 to 194,COc1cc(C(=O)Nc2ccc(N3CCOCC3)cc2C(C)=O)ccc1OCc1ccccc1
13,194 to 196,COCCc1nc2c(N)nc3ccccc3c2n1CCCNC(=O)N1CCOCC1
14,113 to 116,CCN(CC)OC(=Nc1c(C(C)C)cccc1C(C)C)Nc1c(C(C)C)cccc1C(C)C
15,280,CCOC(=O)c1ccc2c(c1)C(c1ccc(O)cc1)(c1ccc(O)cc1)c1ccccc1-2
16,228 to 230,Clc1cccnc1-c1ccc2[nH]nc(Nc3cnccn3)c2c1
17,125 to 127,CCOC(=O)c1cc2n(c1)C(C)N(C(=O)OCC)c1ccccc1-2 (stereo not given)
18,84 to 86,OC(CC1CCN(Cc2ccccc2)CC1)c1ccc(F)cc1 (stereo not given)
19,193,CC(C)(C)CC(=O)N[C@H]1CC[C@H](CCN2CCN(c3nccc4c3OCC4)CC2)CC1
20,88 to 90,N#Cc1cccnc1Oc1cccc(Cl)c1
21,95 to 96,CC/C(=C(/c1ccc(O)cc1)c1ccc(OCCN(C)C)cc1)c1ccc(C(C)C)cc1
22,150 to 152,CCC(=CC(CNC(=O)c1ccncn1)=NO)C(C)[N+](=O)[O-] (stereo not given)
23,157 to 158,CC(=O)c1ccc(-c2c(C)c(NC(=O)CC(C)(C)C)c(C)c3c2OCC3c2ccc(C(C)C)cc2)s1 (stereo not given)

row,melting point [°C],Structure (SMILES)
1,121 to 124,COc1ccccc1NC(=O)Nc1nc(N2CCC(O)CC2)nc(N(CCC(=O)O)Cc2ccc(Cl)c(Cl)c2)n1
2,109 to 112,CCOc1ccc(C2=NN(C3CCN(C(=O)Nc4ccccc4)CC3)C(=O)[C@@H]3CC=CC[C@H]23)cc1OCC
3,150 to 153,CC(C)(C)OC(=O)N[C@H]1CCc2ccc(OCCCC(=O)O)cc2C1
4,> 250,O=C1NCCn2c1nc1ccccc12
5,154 to 155,COc1ccc(-c2cc(C(=O)O)c(=O)n(CC3CC3)n2)cc1
6,45.1 to 46.5,CCc1ccc(S(=O)(=O)O)cc1
7,116 to 117,CCOC(=O)CCC(=O)c1ccc(O)c(O)c1
8,218 to 219,COc1ccc(Cn2c(=O)c3c(c4ccccc42)OC(C)(C)[C@@H](O)[C@@H]3NC(=O)CCCCl)cc1 (relative stereo)
9,174 to 176,Cc1cc2oc(=O)c3c(c2cc1NC(=O)c1ccccc1)CCN(CCN1CC2CCC(CC2)C1)C3
10,101 to 103,C#CCCn1ncc2c(N)c(C(=O)OCC)c(C)nc21
11,88 to 90,CC(C)(C)NS(=O)(=O)c1cccc(F)n1
12,95 to 105,O=C(O)C(CCc1ccccc1)CC(CCc1ccccc1)C(=O)O (stereo not given)
13,56 to 58,Cc1ccccc1Oc1cccc(C=O)c1O
14,137 to 138,CN1c2cscc2C(=O)N(Cc2ccccc2)c2ccccc21
15,190 to 192,Cc1oc2cc(C(CC(=O)O)CC(=O)O)ccc2c1C
16,180 to 182,CC1(C)Oc2ccccc2C=C1/C=C/C=C/C=C/C(=O)O
17,96 to 101,COC(=O)C(Cc1ccccc1)Oc1ccc2cc(-c3csc(-c4ccccc4)n3)ccc2c1Br (stereo not given)
18,43 to 44,O=c1ccoc2cc(OS(=O)(=O)C(F)(F)F)ccc12
19,112 to 114,N#CCSc1nc2ccc(Cl)nc2s1
20,95 to 97,CCNC(=O)c1c(Cl)cc(C=O)cc1[Si](C)(C)C
21,155,O=c1[nH]cc(-c2cc(-c3cnc4ccccc4c3)ccn2)n1-c1ccc(N2CCNCC2)c(C(F)(F)F)c1
22,199,Cn1cc(S(C)=O)c(=O)c2sccc21 (stereo not given)
23,74 to 76,O=C(OCc1ccccc1)c1cc(Br)c(OCc2ccccc2)cc1OCc1ccccc1

row,melting point [°C],Structure (SMILES)
1,138 to 139,CN1CCc2cc(OC[C@H]3CO[C@](Cn4ccnc4)(c4ccc(Cl)cc4Cl)O3)ccc2C12CCSCC2 (racemic)
2,136 to 137,CC(=O)NCC1CCCc2cc(NS(=O)(=O)c3cccc(F)c3)ccc21 (stereo not given)
3,142 to 145,COC(=O)c1cc(OCCCOc2ccc(-c3ccccc3)cc2)cc(OCCCOc2ccc(-c3ccccc3)cc2)c1
4,127,FC(F)c1cc(-c2cccc(C(F)(F)F)c2)nc2ccnn12
5,155 to 159,O=C(N[C@H](CC1CCCCC1)CN1CCN(c2nccc3ccccc23)CC1)C1CCCCC1
6,92,COc1ccc(C(=O)N2CCCC2=O)cc1OCc1ccccc1
7,177 to 178,COc1cc(COc2nn(-c3ccccc3)cc2/C=C/C(C)=O)ccc1OCc1nc(-c2ccco2)oc1C
8,134 to 135,CC(C)(C(=O)c1ccccc1)n1cncn1
9,63 to 64,CC(C)Sc1nc(-c2nn(C)c(OC(F)F)c2Cl)c(F)cc1Cl
10,96 to 99,Cc1cc(C)c2nc(COc3ccc(CC4SC(=O)N(C(c5ccccc5)(c5ccccc5)c5ccccc5)C4=O)cc3)n(C)c2n1 (stereo not given)
11,128 to 130,CC1(C)CCC(=O)Nc2cc(OCCCCCN3CCN(c4cccc(Cl)c4Cl)CC3)ccc21
12,61 to 62,N#CCOc1ccc(Cl)c(Cl)c1
13,137 to 138,COc1ccc(Oc2ccc(C#CC(C)N(O)C(N)=O)s2)cc1 (stereo not given)
14,168 to 169,CCOC(=O)Cc1ccc(Cc2nc3n(-c4c(Cl)cccc4Cl)[nH]c(C(C)C)c-3c(=O)n2)cc1
15,148,CC(C(=O)O)c1ccc2c(c1)C(=O)Cc1ccc(F)cc1S2 (stereo not given)
16,60 to 62,COC(=O)CCC(=O)c1cccc(Cl)c1O
17,72 to 75,CN1CCN(c2cccc(-c3cnn4c(N)c(Cc5ccccc5)cnc34)c2)CC1
18,80.6,C=Cc1ccc(-c2ccc(OC(C)CCCCCC)cc2)cc1 (stereo not given)
19,133 to 135,O=C(CCCN1CCN(c2nc3nccc(-c4ccncc4)n3n2)CC1)c1ccc(F)cc1
20,133 to 135,CC(C)Oc1ccccc1-c1cc(=O)c2cc(C(=O)O)ccc2o1
21,224 to 225,CCc1cc(-c2nc(C)c(-c3ccnc(Nc4ccc(CNC(C)=O)cc4)n3)s2)ccn1
22,245,O=C(O)c1cn(C2CC2)c2nc3cc(N4CCNC(c5cccs5)C4)c(F)cc3cc2c1=O (racemic)

row,Structure (SMILES),melting point [°C]
1,CNC(=O)Oc1cccc(NC(=O)C=C(C)OC)c1,175
2,CC1C(c2ccccc2)OP(N)(=O)N1C (stereo not given),170 to 172
